Eight test systems from the supplement of paper PMC6045584 can be followed below.

± gives the standard deviation of the averaged measurements.

Compound in one test: CN(C)CC[C@H](CSc1ccccc1)Nc1ccc(S(=O)(=O)NC(=O)c2ccc(N3CCN(Cc4ccccc4-c4ccc(Cl)cc4)CC3)cc2)cc1[N+](=O)[O-] [ABT-737]
Kind of test: surviving fraction relative to DMSO-only wells; higher = less growth inhibition. As to conditions: exposure time: 5 days. The gist of the method:
(§1)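 Inhibitors were tested at 0.5, 1, 5, 10, 50, 100, 500 and 1000 nM, applied continuously for five days beginning 24 hours after log-phase tumour cells were seeded at 250–500 per well in 384-well plates. CellTiter-Glo luminescence served as the viability measure, expressed as surviving fraction against the median of DMSO-only wells. Each line, screened three times, was kept only with replicate Pearson r >0.7 and median Z' >0.3.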

Compound in a further test: O=c1[nH]cc(F)c(=O)[nH]1 [FLUOROURACIL]
The test is described as above. The settings on record: exposure time: 5 days. Put shortly:
as §1

Turning to 22RV1 PROSTATE, the surviving fraction with ABT-737 (0.5 nM) was found to be 0.997 ± 0.07; in the test with ABT-737 (1 nM) it was 1.13 ± 0.22; with ABT-737 (5 nM) it was 1.03 ± 0.063; with ABT-737 (10 nM), 0.995 ± 0.079; in the test with ABT-737 (50 nM), 1.07 ± 0.086; with ABT-737 (100 nM), 1.03 ± 0.13. In addition, the surviving fraction with ABT-737 (500 nM) turned out to be 1.1 ± 0.042; in the test with ABT-737 (1000 nM), 0.96 ± 0.097; in the test with FLUOROURACIL (0.5 nM) it was 1.07 ± 0.11; in the test with FLUOROURACIL (1 nM) it was 0.936 ± 0.068; with FLUOROURACIL (5 nM), 1.1 ± 0.11; in the test with FLUOROURACIL (10 nM), 0.946 ± 0.13. The surviving fraction with FLUOROURACIL (50 nM) was 1.09 ± 0.053; with FLUOROURACIL (100 nM) it was 1.104 ± 0.011; in the test with FLUOROURACIL (500 nM) it was 0.957 ± 0.15; in the test with FLUOROURACIL (1000 nM) it was 0.705 ± 0.18.

Turning to 93VU HEADNECK, the surviving fraction in the test with ABT-737 (0.5 nM) stood at 1.146 ± 0.0083; in the test with ABT-737 (1 nM), 1.09 ± 0.057; in the test with ABT-737 (5 nM) it was 1.21 ± 0.19; in the test with ABT-737 (10 nM), 1.16 ± 0.031; with ABT-737 (50 nM) it was 1.23 ± 0.069; in the test with ABT-737 (100 nM), 1.17 ± 0.09. Besides, the surviving fraction amounted to 1.12 ± 0.09 with ABT-737 (500 nM); 1.04 ± 0.074 in the test with ABT-737 (1000 nM); 1.01 ± 0.11 with FLUOROURACIL (0.5 nM); 1 ± 0.052 with FLUOROURACIL (1 nM); 1.07 ± 0.089 with FLUOROURACIL (5 nM); 1.05 ± 0.11 with FLUOROURACIL (10 nM). The surviving fraction with FLUOROURACIL (50 nM) came to 0.884 ± 0.082; with FLUOROURACIL (100 nM), 0.884 ± 0.0072; with FLUOROURACIL (500 nM), 0.665 ± 0.062; in the test with FLUOROURACIL (1000 nM), 0.882 ± 0.063.

Turning to 143B BONE, the surviving fraction came to 1.08 ± 0.042 with ABT-737 (0.5 nM); 1.09 ± 0.027 in the test with ABT-737 (1 nM); 1.14 ± 0.092 with ABT-737 (5 nM); 1.11 ± 0.071 with ABT-737 (10 nM); 1.13 ± 0.054 with ABT-737 (50 nM); 1.115 ± 0.0057 with ABT-737 (100 nM). Besides, the surviving fraction in the test with ABT-737 (500 nM) was found to be 1.12 ± 0.037; with ABT-737 (1000 nM), 1.14 ± 0.064; with FLUOROURACIL (0.5 nM), 1.12 ± 0.15; with FLUOROURACIL (1 nM) it was 1.11 ± 0.079; with FLUOROURACIL (5 nM) it was 1.14 ± 0.11; with FLUOROURACIL (10 nM) it was 1.11 ± 0.094. In addition, the surviving fraction stood at 1.14 ± 0.17 in the test with FLUOROURACIL (50 nM), 1.12 ± 0.13 with FLUOROURACIL (100 nM), 1.1 ± 0.12 with FLUOROURACIL (500 nM) and 0.929 ± 0.029 with FLUOROURACIL (1000 nM).

A549 LUNG: the surviving fraction is 1.06 ± 0.012 in the test with ABT-737 (0.5 nM); 1.05 ± 0.022 with ABT-737 (1 nM); 1.07 ± 0.023 with ABT-737 (5 nM); 1.06 ± 0.03 with ABT-737 (10 nM); 1.07 ± 0.039 in the test with ABT-737 (50 nM); 1.09 ± 0.039 with ABT-737 (100 nM). In addition, the surviving fraction with ABT-737 (500 nM) was 1.12 ± 0.044; with ABT-737 (1000 nM), 1.05 ± 0.053; in the test with FLUOROURACIL (0.5 nM) it was 1.093 ± 0.0015; in the test with FLUOROURACIL (1 nM), 1.055 ± 0.007; with FLUOROURACIL (5 nM), 1.051 ± 0.001; in the test with FLUOROURACIL (10 nM), 1.04 ± 0.032. The surviving fraction stood at 1.11 ± 0.019 in the test with FLUOROURACIL (50 nM), 1.029 ± 0.0045 with FLUOROURACIL (100 nM), 1.05 ± 0.025 with FLUOROURACIL (500 nM) and 0.554 ± 0.046 with FLUOROURACIL (1000 nM).

In the case of ASKA SYNOVIAL, the surviving fraction was 1.15 ± 0.031 in the test with ABT-737 (0.5 nM); 1.19 ± 0.044 in the test with ABT-737 (1 nM); 1.2 ± 0.027 with ABT-737 (5 nM); 1.16 ± 0.047 with ABT-737 (10 nM); 1.1 ± 0.05 with ABT-737 (50 nM); 1.11 ± 0.076 with ABT-737 (100 nM). The surviving fraction in the test with ABT-737 (500 nM) is 0.914 ± 0.084; with ABT-737 (1000 nM), 0.79 ± 0.066; in the test with FLUOROURACIL (0.5 nM) it was 1.1 ± 0.072; with FLUOROURACIL (1 nM), 1.06 ± 0.081; with FLUOROURACIL (5 nM), 1.17 ± 0.021; with FLUOROURACIL (10 nM) it was 1.04 ± 0.024. Besides, the surviving fraction is 1.01 ± 0.05 with FLUOROURACIL (50 nM), 0.937 ± 0.066 in the test with FLUOROURACIL (100 nM), 0.919 ± 0.068 with FLUOROURACIL (500 nM) and 0.775 ± 0.042 with FLUOROURACIL (1000 nM).

On to BT20 BREAST, for which the surviving fraction in the test with ABT-737 (0.5 nM) was determined as 1.2 ± 0.061; in the test with ABT-737 (1 nM), 1.19 ± 0.089; in the test with ABT-737 (5 nM), 1.15 ± 0.06; with ABT-737 (10 nM) it was 1.26 ± 0.06; with ABT-737 (50 nM) it was 1.14 ± 0.14; with ABT-737 (100 nM), 1.18 ± 0.13. For the same test system, the surviving fraction was found to be 1.14 ± 0.043 with ABT-737 (500 nM); 1.07 ± 0.064 with ABT-737 (1000 nM); 1.15 ± 0.11 in the test with FLUOROURACIL (0.5 nM); 1.18 ± 0.11 with FLUOROURACIL (1 nM); 1.25 ± 0.058 with FLUOROURACIL (5 nM); 1.16 ± 0.07 with FLUOROURACIL (10 nM). Besides, the surviving fraction with FLUOROURACIL (50 nM) is 0.844 ± 0.079; with FLUOROURACIL (100 nM), 0.836 ± 0.049; with FLUOROURACIL (500 nM), 1.09 ± 0.049; with FLUOROURACIL (1000 nM), 0.929 ± 0.1.

Consider BT549 BREAST, for which the surviving fraction with ABT-737 (0.5 nM) is 0.996 ± 0.018; with ABT-737 (1 nM) it was 0.867 ± 0.047; in the test with ABT-737 (5 nM), 1.12 ± 0.075; with ABT-737 (10 nM), 0.782 ± 0.043; in the test with ABT-737 (50 nM), 1.12 ± 0.029; with ABT-737 (100 nM), 0.771 ± 0.095. The surviving fraction with ABT-737 (500 nM) was 1.04 ± 0.16; with ABT-737 (1000 nM), 0.841 ± 0.097; with FLUOROURACIL (0.5 nM), 1.07 ± 0.13; in the test with FLUOROURACIL (1 nM), 1.06 ± 0.024; with FLUOROURACIL (5 nM), 1.05 ± 0.21; with FLUOROURACIL (10 nM), 0.95 ± 0.12. Besides, the surviving fraction stood at 0.8 ± 0.06 with FLUOROURACIL (50 nM), 0.843 ± 0.15 with FLUOROURACIL (100 nM), 0.872 ± 0.084 with FLUOROURACIL (500 nM) and 0.585 ± 0.071 in the test with FLUOROURACIL (1000 nM).

Regarding C33A CERVIX, the surviving fraction with ABT-737 (0.5 nM) came to 0.932 ± 0.1; in the test with ABT-737 (1 nM) it was 0.973 ± 0.088; in the test with ABT-737 (5 nM), 1.08 ± 0.013; with ABT-737 (10 nM), 1.08 ± 0.12; in the test with ABT-737 (50 nM), 1.02 ± 0.14; with ABT-737 (100 nM) it was 1.1 ± 0.09. Moreover, the surviving fraction in the test with ABT-737 (500 nM) was 0.927 ± 0.11; with ABT-737 (1000 nM) it was 1.04 ± 0.15; with FLUOROURACIL (0.5 nM) it was 1 ± 0.086; with FLUOROURACIL (1 nM) it was 1.12 ± 0.043; in the test with FLUOROURACIL (5 nM) it was 1.08 ± 0.11; with FLUOROURACIL (10 nM), 1.16 ± 0.05. Further, the surviving fraction in the test with FLUOROURACIL (50 nM) amounted to 1.1 ± 0.055; with FLUOROURACIL (100 nM), 1.1 ± 0.06; with FLUOROURACIL (500 nM), 1.02 ± 0.085; in the test with FLUOROURACIL (1000 nM), 1.28 ± 0.055.
